We go through 1 compound from article PMC8383266 (Biochemistry, 2021).

For this test, the target named is BlaC (β-lactamase) (Mycobacterium tuberculosis, UniProt P9WKD3, G144S). In kind it is biochemical.

As to `NC(=O)[C@@H]1CC[C@@H]2CN1C(=O)N2OS(=O)(=O)O` [avibactam], the “activity of BlaC G132S in the presence of avibactam (Figure S13, not shown)” value was “we found BlaC G132S is also more sensitive to avibactam”.
